The text below walks through data of patent publication US20240132458A1, “NLRP3 INFLAMMASOME SMALL-MOLECULE INHIBITOR FOR TREATMENT OF ALZHEIMER'S DISEASE” (AJOU UNIVERSITY INDUSTRY-ACADEMIC COOPERATION FOUNDATION, priority 2021, published 2024).

Data set [1] in a line: Microsomal stability. It counts as in vitro ADME, human. The method, then:
Stock solutions of NIC7 and NIC7w were prepared at a concentration of 10 mM in DMSO, and were diluted to a concentration of 100 μM with 100% methanol as a working solution. These NIC7 and NIC7w solutions were diluted to a concentration of 1 μM with potassium phosphate buffer (pH 7.4), and then each solution was incubated with 0.5 mg/mL liver microsomes (human) at 37° C. for 5 minutes. The reaction was initiated by adding a NADPH-generating system (3.3 mM glucose-6-phosphate (G6P), 1.3 mM β-NADP^+, 3.3 mM MgCl2, and 0.4 U/mL glucose-6-phosphate dehydrogenase (G6PD)) at 37° C. The reaction was stopped at 0 and 30 minutes using cold acetonitrile containing carbamazepine as an internal standard at 20 ng/mL. After vortexing and centrifugation, the supernatant was analyzed with liquid chromatography with tandem mass spectrometry (LC-MS/MS). All microsomal assays were performed in duplicate.
After sample preparation, 0.1 mL acetonitrile containing 20 ng/mL internal standard was added to a 50 μL aliquot of each biological sample. After vortexing and centrifugation at 12,000 rpm for 10 minutes, 10 μL of the supernatant was analyzed with LC-MS/MS.
In the LC system, a reversed-phase C18 column (BEH C18, 2.1 mm×100 mm i.d., 1.7 μm; Waters, Ireland) was maintained at 4° C. The composition of the mobile phase was changed from 80% of 0.1% formic acid in water to 80% of 0.1% formic acid in acetonitrile for 3 minutes, and then switched to 80% of 0.1% formic acid in water for 3.1 minutes, and maintained at 0.5 at mL/min for 5 minutes. The analytes were monitored on an API5500 triple quadrupole mass spectrometer MS (AB Sciex, Foster City, CA) equipped with a turbo ion spray interface for electrospray ionization and operated in positive ion mode at 5.5 kV and 500° C. at 50 L/min of atomizing gas flow, 50 L/min of turbo ion-spray gas flow, 20 L/min of curtain gas flow, 5.5 kV of ring voltage and 5 Torr of collision gas (nitrogen) pressure. The mass transitions for NIC7, NIC7w and the internal standard were m/z 481.1→165.0 (collision energy, 45 eV), 453.1→165.0 (41.0 eV) and 236.9→194.0 (29 eV), respectively, in the multiple reaction monitoring mode.

In data set [2] the test system is AD model mice (Aβ1-42 injected). Kind of data set: Y-maze test in AD model (spatial working memory). It counts as in vivo, C57BL/6 mice. As to conditions: NIC7 100 nmol/g intraperitoneally, 3 days/week; vs vehicle-treated and untreated mice. The method, then:
(§1) 6-week-old male C57BL/6 mice (19 to 22 g) were used, and 5 mice per cage were bred in a feedlot. To create an AD model, experimental animals were administered isoflurane by inhalation, and then injected with Aβ1-42 (5 μL) using a Hamilton microsyringe with a 26-gauge needle. The AD model mice were trained for 20 minutes/mouse for 2 days before the experimental procedure, and then subjected to Y-maze tests and novel object recognition tests (for cognitive evaluation). Behavioral evaluation was performed 7 days after Aβ1-42 injection. The animals were subdivided into AD, NIC7-treated, vehicle (DMSO)-treated, donepezil-treated (positive control) and normal (no-disease) groups. Cognitive evaluation was performed on days 7, 14, 21 and 28 after injection.
The alteration in spatial cognitive behavior was assessed using a Y-maze apparatus with three horizontal identical arms (35 cm long×15 cm high×5 cm wide) symmetrically arranged at 120° to each other. The evaluation was performed in the Y-maze test 7 days after Aβ injection. After introduction into the Y-maze, each animal was allowed to move freely for 2 minutes and then measured for 5 minutes. The test subjects tended to enter an arm different from the arm they had previously visited. The number of arm entries and triads was recorded to calculate the percentage of alternation. […]

The target of data set [3] is T1, CYP2C9 (Homo sapiens, UniProt P11712).
T1 construct: pooled human liver microsomes were assayed at 0.25 mg/mL concentration; from tissue; host or cells: pooled human liver microsomes
T1 sequence (P11712 whole entry): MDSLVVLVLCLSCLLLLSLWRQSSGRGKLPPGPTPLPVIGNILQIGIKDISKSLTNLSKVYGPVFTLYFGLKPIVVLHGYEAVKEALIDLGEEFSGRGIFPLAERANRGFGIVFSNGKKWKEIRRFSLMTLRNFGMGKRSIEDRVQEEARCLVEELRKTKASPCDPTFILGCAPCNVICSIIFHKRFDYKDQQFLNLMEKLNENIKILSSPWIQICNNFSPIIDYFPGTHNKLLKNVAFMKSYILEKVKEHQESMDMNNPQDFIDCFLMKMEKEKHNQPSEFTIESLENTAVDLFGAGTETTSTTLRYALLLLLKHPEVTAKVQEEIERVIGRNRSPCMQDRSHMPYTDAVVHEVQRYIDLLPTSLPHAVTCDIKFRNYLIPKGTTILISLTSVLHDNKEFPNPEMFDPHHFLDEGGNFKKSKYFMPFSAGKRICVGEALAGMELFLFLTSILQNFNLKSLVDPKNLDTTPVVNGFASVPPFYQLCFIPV
Kind of data set: Cytochrome P450 inhibition. The format is in vitro ADME. The method, then:
(§2) The inhibitory effects of NIC7 and NIC7w on the metabolism of the five major P450 probe substrates were evaluated using a previously reported method (S. Seino, Diabetologia 55, 2096-2108 (2012)) with minor modifications. A cocktail of substrates (phenacetin O-deethylase, tolbutamide 4-hydroxylase, mephenytoin 4-hydroxylase, dextromethorphan O-demethylase, and midazolam 1′-hydroxylase) was used for five major P450 enzymes, CYP1A2, CYP2C9, CYP2C19, CYP2D6, and CYP3A4, respectively. NIC7 and NIC7w were prepared at a concentration of 10 mM in DMSO and dissolved in methanol at a concentration of 1 mM. In all experiments, the final concentration of an organic solvent (methanol) for cocktail incubation was set at 1.0% (v/v). Both NIC7 and NIC7w were used at 10 μM, and pooled human liver microsomes were assayed at 0.25 mg/mL concentration. The substrate cocktail solution was incubated with the microsomes for 5 min at 37° C. The reaction was initiated by adding an NADPH-generating system (the same as described in Examples 1-5) at 37° C. and 1300 rpm. The reaction was stopped at 10 min by the addition of cold acetonitrile containing carbamazepine as an internal standard at 20 ng/mL. After vortexing and centrifugation, the supernatant was analyzed with LC-MS/MS. All microsomal incubations were performed in triplicate.

Data set [4] concerns the target T2, CYP3A4 (Homo sapiens, UniProt P08684).
T2 construct: pooled human liver microsomes were assayed at 0.25 mg/mL concentration; from tissue; host or cells: pooled human liver microsomes
Kind of data set: Cytochrome P450 inhibition. As to conditions: probe midazolam (1′-hydroxylation), pooled human liver microsomes 0.25 mg/mL, read-out: CYP inhibition (% at 10 μM) 3A4. It counts as in vitro ADME. The procedure: as §2
Background: Liver microsomes are vesicles of endoplasmic reticulum, rich in cytochrome P450 enzymes.

The target of data set [5] is T3, CYP2D6 (Homo sapiens, UniProt P10635).
T3 construct: pooled human liver microsomes were assayed at 0.25 mg/mL concentration; from tissue; host or cells: pooled human liver microsomes
T3 sequence (P10635 whole entry): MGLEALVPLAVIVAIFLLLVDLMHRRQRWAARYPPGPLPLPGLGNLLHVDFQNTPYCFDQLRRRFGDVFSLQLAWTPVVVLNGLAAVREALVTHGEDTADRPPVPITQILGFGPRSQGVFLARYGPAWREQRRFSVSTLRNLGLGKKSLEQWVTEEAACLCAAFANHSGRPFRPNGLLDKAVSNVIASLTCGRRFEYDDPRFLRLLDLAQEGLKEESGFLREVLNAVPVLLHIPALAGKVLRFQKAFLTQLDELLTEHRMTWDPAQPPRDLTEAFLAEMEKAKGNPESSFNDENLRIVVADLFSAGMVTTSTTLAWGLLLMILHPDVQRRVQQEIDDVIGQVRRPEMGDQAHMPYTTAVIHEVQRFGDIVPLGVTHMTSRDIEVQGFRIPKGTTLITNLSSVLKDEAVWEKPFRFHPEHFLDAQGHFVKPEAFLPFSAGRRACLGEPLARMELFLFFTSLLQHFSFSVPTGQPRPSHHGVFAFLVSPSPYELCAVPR
Kind of data set: Cytochrome P450 inhibition. The format is in vitro ADME. As to conditions: probe dextromethorphan (O-demethylation), pooled human liver microsomes 0.25 mg/mL, read-out: CYP inhibition (% at 10 μM) 2D6. The procedure: as §2

The nature of data set [6]: Body weight in AD model. It counts as in vivo, C57BL/6 mice. To be noted: NIC7 100 nmol/g intraperitoneally; compared to the untreated mice. The method, then: as §1
For data set [7], the system named is AD model mice (Aβ1-42 injected). Kind of data set: Novel object recognition test in AD model. As to conditions: NIC7 100 nmol/g intraperitoneally; vs vehicle-treated or untreated mice. The format is in vivo, C57BL/6 mice. The method, then:
as §1
A novel object recognition test was performed in an open field box containing two identical objects. Animals were first familiarized with these identical objects for 2 minutes, and then one of the objects was replaced with a novel object, followed by reading for 5 minutes. The time spent with an identical object (tA) and the time spent with a novel object (tB) were calculated, and the recognition index ratio was calculated via the formula (tB/(tA+tB))×100.

T2 sequence (P08684 whole entry): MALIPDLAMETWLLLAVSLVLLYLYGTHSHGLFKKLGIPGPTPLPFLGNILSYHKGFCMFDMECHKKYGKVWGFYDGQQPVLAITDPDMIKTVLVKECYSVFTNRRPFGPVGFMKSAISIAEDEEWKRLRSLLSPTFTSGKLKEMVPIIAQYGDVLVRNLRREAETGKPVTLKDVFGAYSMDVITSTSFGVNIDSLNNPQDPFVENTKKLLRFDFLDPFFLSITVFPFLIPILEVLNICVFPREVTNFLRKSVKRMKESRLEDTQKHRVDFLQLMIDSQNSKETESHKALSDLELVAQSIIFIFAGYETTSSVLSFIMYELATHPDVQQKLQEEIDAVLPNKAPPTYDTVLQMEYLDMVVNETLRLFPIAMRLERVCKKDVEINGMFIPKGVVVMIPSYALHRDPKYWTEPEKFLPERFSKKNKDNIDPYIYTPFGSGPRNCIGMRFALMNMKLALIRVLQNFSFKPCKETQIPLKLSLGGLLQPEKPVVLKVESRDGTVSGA

As to `CC(=O)c1cccc(NC(=O)Nc2ccc3sc(NS(=O)(=O)c4ccc(C)cc4)nc3c2)c1` [NIC7, N-(5-(3-(3-acetylphenyl)ureido)benzo[d]thiazol-2-yl)-4-methylbenzenesulfonamide], the “metabolic stability versus positive control compound” value in data set [1] is “better half-life and stability than a positive control compound”. For the same compound, the “Microsomal stability (% at 30 min)” value in data set [1] (Human liver microsomes 0.5 mg/mL, 1 μM compound, 37° C.) is reported as “Human: 19.7%”. For the same compound, in data set [2], the “Y-maze test, spatial working memory” value is “spent more time in the novel arm”. Besides, the “CYP enzyme selectivity of inhibition” value in data set [3] (five P450 enzymes, 10 μM) is “acted mainly on CYP2C9 enzyme and hardly acted on other types of CYP enzymes”. The inhibition at 10 min, 10 µM was 34.2% in data set [3] (probe tolbutamide (4-hydroxylation), pooled human liver microsomes 0.25 mg/mL, tolbutamide, read-out: CYP inhibition (% at 10 μM) 2C9); under 1% in data set [4]; 9.8% in data set [5]. Further, in data set [6], the body weight entry was “significantly increased”. In data set [7], the “recognition index rate (novel object recognition test)” value is recorded as “better”.

As usually defined, the inhibition is the percentage by which the read-out fell short of the control.
